What all share (test): Glasshouse trial on activity boost, post-emergence spraying, visual rating
Holding throughout (format): in vivo

Test [1] concerns Lolium multiflorum (LOLMU). As for the experimental part: (§1) Seeds of monocot and dicot weeds and crop plants are sown in sandy loam soil in wood fibre pots or in plastic pots, and are covered with soil and cultivated under good growth conditions in the glasshouse and also, during the vegetation period, outdoors outside the glasshouse. 2-3 weeks after sowing, the trial plants are treated at the one- to three-leaf stage. The test compounds, formulated as wettable powders (WP) or liquids (EC), are applied by spraying to the plants and the soil surface in various doses, with a water application rate of 300 l/ha (converted) and with the addition of penetrants (0.2% to 0.4%) and where appropriate an ammonium salt. After the trial plants had stood in the glasshouse for about 3 to 4 weeks under optimum growth conditions, the activity of the products was rated visually in comparison to untreated controls (activity in %, i.e. 0%=no activity or as control, 100%=all plants died).
(§2) For rapeseed oil methyl ester (RME) the following tables specify concentration in % a.i. by volume for ammonium sulphate (AMS) in g/l in the spray liquor.
(§3) ALOMY=Alopecurus myosuroides AVEFA=Avena fatua LOLMU=Lolium multiflorum LOLRI=Lolium rigidum
(§4) ALOMY=Alopecurus myosuroides AVEFA=Avena fatua LOLMU=Lolium multiflorum SETVI=Setaria viridis

Test [2] has as its system Avena fatua (AVEFA). Here is the method:
as §1, §2, §3, §4
(§5) ALOMY=Alopecurus myosuroides AVEFA=Avena fatua LOLMU=Lolium multiflorum SETVI=Setaria viridis BROER=Bromus erectus

In test [3] the test system is Alopecurus myosuroides (ALOMY). Here is the method: as §1, §2, §3, §4, §5
In test [4] the test system is Setaria viridis (SETVI). As for the experimental part: as §1, §2, §4
Where [5] appears, read: 25 g/ha, RME (0.25%) + AMS (3.3 g/l).
Where [6] appears, read: 50 g/ha, RME (0.25%) + AMS (3.3 g/l).
[7] abbreviates: 50 g/ha, RME (0.25%) + AMS (0.33 g/l).
Where [8] appears, read: 50 g/ha, RME (0.25%) + AMS (1 g/l).
[9] abbreviates: 25 g/ha, RME (0.25%) + AMS (0.33 g/l).
Where [10] appears, read: 25 g/ha, RME (0.25%) + AMS (1 g/l).
Setting [11] is: 12.5 g/ha, RME (0.25%) + AMS (3.3 g/l).

In the case of `CCc1cc(C)cc(CC)c1-c1c(OC(=O)C(C)(C)C)n2n(c1=O)CCOCC2` [I-8-b-1], the Activity in test [1] (25 g/ha, RME (0.25%)) is 60%; in test [1] (setting [5]), 93%; in test [1] (50 g/ha, RME (0.25%)), 97%; in test [1] (setting [6]), 100%; in test [2] (25 g/ha, RME (0.25%)), 30%; in test [2] (setting [5]), 80%. Further, the Activity in test [2] (50 g/ha, RME (0.25%)) is on record as 70%; in test [2] (setting [7]), 90%; in test [2] (setting [8]), 95%; in test [2] (setting [6]) it was 97%; in test [3] (25 g/ha, RME (0.25%)), 20%; in test [3] (setting [9]), 70%. Also, the Activity is on record as 50% in test [3] (setting [10]); 80% in test [3] (setting [5]); 90% in test [3] (50 g/ha, RME (0.25%)); 95% in test [3] (setting [6]).
`CCc1cc(C)cc(CC)c1C1C(=O)[C@H]2CCCC[C@@H]2C1=O` [I-6-a-2]: the Activity is recorded as 5% in test [1] (12.5 g/ha, RME (0.25%)); 97% in test [1] (setting [11]); 20% in test [1] (25 g/ha, RME (0.25%)); 100% in test [1] (setting [5]); 10% in test [2] (12.5 g/ha, RME (0.25%)); 93% in test [2] (setting [11]). The Activity is 35% in test [2] (25 g/ha, RME (0.25%)); 99% in test [2] (setting [5]); 10% in test [3] (12.5 g/ha, RME (0.25%)); 75% in test [3] (setting [11]); 30% in test [3] (25 g/ha, RME (0.25%)); 93% in test [3] (setting [5]).
For `CCc1cc(C)cc(C)c1C1C(=O)CC2(CCCCC2)C1=O` (stereo not shown) [I-6-a-1], the Activity in test [4] (12.5 g/ha, RME (0.25%)) came out at 0%; in test [4] (setting [11]), 25%; in test [4] (25 g/ha, RME (0.25%)), 15%; in test [4] (setting [5]) it was 90%; in test [4] (50 g/ha, RME (0.25%)), 25%; in test [4] (setting [6]) it was 90%.
With `CCc1cc(Br)cc(C)c1C1=C(O)C2(CCC(OC)CC2)NC1=O` (stereo not shown) [I-1-a-1], the Activity in test [4] (25 g/ha, RME (0.25%)) amounted to 30%; in test [4] (setting [5]), 50%; in test [4] (50 g/ha, RME (0.25%)), 40%; in test [4] (setting [6]), 50%.
As for `CCCCO[C@@H]1CCC[C@]2(C1)NC(=O)C(c1c(C)cc(C)cc1C)=C2O` [I-1-a-5], the Activity in test [1] (50 g/ha, RME (0.25%)) is 5%; in test [1] (setting [7]), 60%; in test [1] (setting [8]) it was 93%; in test [1] (setting [6]), 95%; in test [3] (25 g/ha, RME (0.25%)) it was 25%; in test [3] (setting [9]), 50%. The Activity in test [3] (setting [10]) was found to be 50%; in test [3] (setting [5]) it was 60%.
Regarding `CC1=CC(=O)C(c2c(C)cc(C)cc2C)C(=O)O1` (stereo not shown) [I-4-a-1], the Activity in test [4] (25 g/ha, RME (0.25%)) was 0%; in test [4] (setting [5]) it was 20%; in test [4] (50 g/ha, RME (0.25%)) it was 0%; in test [4] (setting [6]), 90%; in test [4] (100 g/ha, RME (0.25%)), 0%; in test [4] (100 g/ha, RME (0.25%) + AMS (3.3 g/l)), 90%.
For `CCc1cc(Cl)ccc1C1=C(OC(=O)C(C)C)C2(CCC(C)CC2)NC1=O` (stereo not shown) [I-1-b-1], the Activity in test [1] (25 g/ha, RME (0.25%)) worked out at 10%; in test [1] (setting [5]) it was 25%; in test [1] (50 g/ha, RME (0.25%)), 10%; in test [1] (setting [6]), 75%; in test [2] (25 g/ha, RME (0.25%)), 15%; in test [2] (setting [5]), 60%. In addition, the Activity is listed as 50% in test [2] (50 g/ha, RME (0.25%)); 60% in test [2] (setting [6]); 5% in test [3] (25 g/ha, RME (0.25%)); 25% in test [3] (setting [5]); 20% in test [3] (50 g/ha, RME (0.25%)); 75% in test [3] (setting [6]).

The record behind these values is US20090227563A1, “HERBICIDAL COMPOSITIONS HAVING IMPROVED EFFECT” (Bayer CropScience AG, priority 2005, published 2009).
